Several values for one entry are separate records, joined by “and”; a condition that tells them apart may be missing. Identical values can stand only once.

The assay relates to Swiss mice, Sarcoma 180 sc, mean tumor weight T/C. Description: NCI In Vivo Anticancer Drug Screen. Data for tumor model Sarcoma 180 (subcutaneous) in Swiss mice. The note with it: endpoint: mean tumor weight, higher = larger tumour. The procedure, abridged: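 Tumor-bearing mice, transplantable tumor; readout survival or tumor size; result = T/C, treated vs vehicle control.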

[1] abbreviates: dose: 200.0 mg/kg/injection, schedule: Q01DX007 (ip), vehicle: carboxymethylcellulose (CMC).

As a reminder, the T/C is the ratio of treated to control. Take `C[C@]12CCC(=O)C=C1CC[C@@H]1[C@@H]2[C@@H](O)C[C@@]2(C)[C@H]1CC[C@]2(O)C(=O)COC(=O)c1ccc([N+](=O)[O-])cc1Cl`: the T/C by setting is: (dose: 12.5 mg/kg/injection, schedule: Q#A X014 (sc), vehicle: steriod suspending solution) 79 % of control; (dose: 25.0 mg/kg/injection, schedule: Q#A X014 (sc), vehicle: steriod suspending solution) 67 % of control; (dose: 50.0 mg/kg/injection, schedule: Q#A X014 (sc), vehicle: steriod suspending solution) 38 % of control; (dose: 100.0 mg/kg/injection, schedule: Q#A X014 (sc), vehicle: steriod suspending solution) 32 % of control.

On to `OCC1OC(n2cnc3c(Cl)ncnc32)C(O)C1O` (centres undefined), for which the T/C is 102 % of control (dose: 5.9 mg/kg/injection, schedule: Q01DX007 (ip), vehicle: carboxymethylcellulose (CMC)); 104 % of control (dose: 11.75 mg/kg/injection, schedule: Q01DX007 (ip), vehicle: carboxymethylcellulose (CMC)); 105 % of control (dose: 23.5 mg/kg/injection, schedule: Q01DX007 (ip), vehicle: carboxymethylcellulose (CMC)); 113 % of control (dose: 47.0 mg/kg/injection, schedule: Q01DX007 (ip), vehicle: carboxymethylcellulose (CMC)); 75 % of control (dose: 50.0 mg/kg/injection, schedule: Q01DX007 (ip), vehicle: carboxymethylcellulose (CMC)); 38 % of control (dose: 94.0 mg/kg/injection, schedule: Q01DX007 (ip), vehicle: carboxymethylcellulose (CMC)). Also, the T/C (dose: 100.0 mg/kg/injection, schedule: Q01DX007 (ip), vehicle: carboxymethylcellulose (CMC)) was 110 % of control; the T/C (dose: 187.5 mg/kg/injection, schedule: Q01DX007 (ip), vehicle: carboxymethylcellulose (CMC)) is 29 % of control; the T/C under setting [1] is 102 % of control; the T/C (dose: 375.0 mg/kg/injection, schedule: Q01DX007 (ip), vehicle: carboxymethylcellulose (CMC)) was 36 % of control; the T/C (dose: 400.0 mg/kg/injection, schedule: Q01DX007 (ip), vehicle: carboxymethylcellulose (CMC)) is 70 % of control; the T/C (dose: 750.0 mg/kg/injection, schedule: Q01DX007 (ip), vehicle: carboxymethylcellulose (CMC)) was 36 % of control. In addition, the T/C (dose: 800.0 mg/kg/injection, schedule: Q01DX007 (ip), vehicle: carboxymethylcellulose (CMC)) is 122 % of control.

On to `CC(C)CC(C)(C[N+](=O)[O-])C[N+](=O)[O-]`, for which the T/C (dose: 4.0 mg/kg/injection, schedule: Q01DX007 (ip), vehicle: saline) was 93 % of control.

Turning to `CC12CCC3C(CCC4CC=CCC43C)C1CCC2=O` (centres undefined), the T/C is 102 % of control (dose: 31.0 mg/kg/injection, schedule: Q01DX007 (sc), vehicle: steriod suspending solution); 105 % of control (dose: 62.5 mg/kg/injection, schedule: Q01DX007 (sc), vehicle: steriod suspending solution); 107 % of control and 123 % of control (dose: 125.0 mg/kg/injection, schedule: Q01DX007 (sc), vehicle: steriod suspending solution); 95 % of control and 96 % of control (dose: 250.0 mg/kg/injection, schedule: Q01DX007 (sc), vehicle: steriod suspending solution).

For `CCCCCCCCCCCCCCCCCC1=NCCN1CCN`, the T/C is 74 % of control and 84 % of control (dose: 22.0 mg/kg/injection, schedule: Q#A X014 (ip), vehicle: saline); 33 % of control (dose: 50.0 mg/kg/injection, schedule: Q#A X014 (ip), vehicle: saline).

As to `CNC=O`, the T/C (dose: 19.87 mg/kg/injection, schedule: Q#A X014 (ip), vehicle: carboxymethylcellulose (CMC)) is 107 % of control; the T/C (dose: 39.75 mg/kg/injection, schedule: Q#A X014 (ip), vehicle: carboxymethylcellulose (CMC)) was 67 % of control; the T/C (dose: 79.5 mg/kg/injection, schedule: Q#A X014 (ip), vehicle: carboxymethylcellulose (CMC)) is 23 % of control; the T/C (dose: 100.0 mg/kg/injection, schedule: Q#A X014 (ip), vehicle: saline) was 20 % of control; the T/C (dose: 120.0 mg/kg/injection, schedule: Q01DX007 (ip), vehicle: carboxymethylcellulose (CMC)) was 19 % of control; the T/C (dose: 125.0 mg/kg/injection, schedule: Q01DX007 (ip), vehicle: saline) was 8 % of control and 12 % of control. Besides, the T/C (dose: 150.0 mg/kg/injection, schedule: Q01DX007 (ip), vehicle: carboxymethylcellulose (CMC)) was 16 % of control; the T/C (dose: 150.0 mg/kg/injection, schedule: Q01DX007 (ip), vehicle: saline) is 4 % of control and 7 % of control; the T/C (dose: 159.0 mg/kg/injection, schedule: Q#A X014 (ip), vehicle: carboxymethylcellulose (CMC)) is 8 % of control; the T/C (dose: 175.0 mg/kg/injection, schedule: Q01DX007 (ip), vehicle: saline) was 1 % of control and 5 % of control; the T/C under setting [1] is 9 % of control; the T/C (dose: 200.0 mg/kg/injection, schedule: Q01DX007 (ip), vehicle: saline) is 2 % of control and 3 % of control and 26 % of control. For the same molecule, the T/C reads like this: (dose: 225.0 mg/kg/injection, schedule: Q01DX007 (ip), vehicle: saline) 1 % of control and 3 % of control; (dose: 250.0 mg/kg/injection, schedule: Q01DX007 (ip), vehicle: saline) 1 % of control and 2 % of control; (dose: 275.0 mg/kg/injection, schedule: Q01DX007 (ip), vehicle: saline) 1 % of control; (dose: 325.0 mg/kg/injection, schedule: Q01DX007 (ip), vehicle: saline) 1 % of control; (dose: 400.0 mg/kg/injection, schedule: Q01DX007 (ip), vehicle: saline) 24 % of control.

For `CCN(CC)c1ccc(/C=C/c2ccnc3ccccc23)cc1`, the T/C (dose: 1.94 mg/kg/injection, schedule: Q01DX007 (ip), vehicle: carboxymethylcellulose (CMC)) was 77 % of control; the T/C (dose: 3.88 mg/kg/injection, schedule: Q01DX007 (ip), vehicle: carboxymethylcellulose (CMC)) was 66 % of control; the T/C (dose: 6.2 mg/kg/injection, schedule: Q01DX007 (ip), vehicle: other) is 63 % of control; the T/C (dose: 7.5 mg/kg/injection, schedule: Q01DX007 (ip), vehicle: other) is 96 % of control; the T/C (dose: 7.75 mg/kg/injection, schedule: Q01DX007 (ip), vehicle: carboxymethylcellulose (CMC)) is 40 % of control; the T/C (dose: 7.75 mg/kg/injection, schedule: Q01DX007 (ip), vehicle: other) is 58 % of control. The T/C was 107 % of control (dose: 10.0 mg/kg/injection, schedule: Q01DX007 (ip), vehicle: other); 72 % of control (dose: 10.33 mg/kg/injection, schedule: Q01DX007 (ip), vehicle: other); 110 % of control (dose: 12.0 mg/kg/injection, schedule: Q01DX007 (ip), vehicle: other); 93 % of control and 110 % of control (dose: 12.31 mg/kg/injection, schedule: Q01DX007 (ip), vehicle: carboxymethylcellulose (CMC)); 90 % of control (dose: 15.5 mg/kg/injection, schedule: Q01DX007 (ip), vehicle: other); 59 % of control and 70 % of control (dose: 24.62 mg/kg/injection, schedule: Q01DX007 (ip), vehicle: carboxymethylcellulose (CMC)). For the same molecule, under “dose: 49.25 mg/kg/injection, schedule: Q01DX007 (ip), vehicle: carboxymethylcellulose (CMC)”, the T/C was 53 % of control.

With `CN(Cc1cnc2nc(N)nc(N)c2n1)c1ccc(C(=O)N[C@@H](CCC(=O)O)C(=O)O)cc1`, the T/C (dose: 0.12 mg/kg/injection, schedule: Q01DX007 (ip), vehicle: water) is 101 % of control; the T/C (dose: 0.12 mg/kg/injection, schedule: Q#A X014 (ip), vehicle: carboxymethylcellulose (CMC)) is 123 % of control; the T/C (dose: 0.25 mg/kg/injection, schedule: Q01DX007 (ip), vehicle: water) is 57 % of control; the T/C (dose: 0.25 mg/kg/injection, schedule: Q#A X014 (ip), vehicle: carboxymethylcellulose (CMC)) was 121 % of control; the T/C (dose: 0.5 mg/kg/injection, schedule: Q01DX007 (ip), vehicle: carboxymethylcellulose (CMC)) was 95 % of control and 110 % of control; the T/C (dose: 0.5 mg/kg/injection, schedule: Q#A X014 (ip), vehicle: carboxymethylcellulose (CMC)) is 73 % of control. The T/C (dose: 0.76 mg/kg/injection, schedule: Q01DX007 (ip), vehicle: carboxymethylcellulose (CMC)) is 119 % of control; the T/C (dose: 1.0 mg/kg/injection, schedule: Q01DX007 (ip), vehicle: carboxymethylcellulose (CMC)) was 107 % of control; the T/C (dose: 1.26 mg/kg/injection, schedule: Q01DX007 (ip), vehicle: carboxymethylcellulose (CMC)) is 68 % of control; the T/C (dose: 1.5 mg/kg/injection, schedule: Q01DX007 (ip), vehicle: carboxymethylcellulose (CMC)) is 78 % of control and 86 % of control; the T/C (dose: 1.9 mg/kg/injection, schedule: Q01DX007 (ip), vehicle: carboxymethylcellulose (CMC)) was 68 % of control; the T/C (dose: 237.0 micrograms/kg/injection, schedule: Q01DX007 (ip), vehicle: carboxymethylcellulose (CMC)) is 105 % of control. Further, the T/C is 104 % of control (dose: 475.0 micrograms/kg/injection, schedule: Q01DX007 (ip), vehicle: carboxymethylcellulose (CMC)); 83 % of control (dose: 950.0 micrograms/kg/injection, schedule: Q01DX007 (ip), vehicle: carboxymethylcellulose (CMC)); 32 % of control (dose: 1900.0 micrograms/kg/injection, schedule: Q01DX007 (ip), vehicle: carboxymethylcellulose (CMC)).
